The experiment addresses T1, human NOX4 (Homo sapiens, UniProt Q9NPH5).
T1 construct: The full-length human NOX4 (NM_016931.3) transcript was cloned; expressed in transfected cells
T1 sequence (Q9NPH5 1-578): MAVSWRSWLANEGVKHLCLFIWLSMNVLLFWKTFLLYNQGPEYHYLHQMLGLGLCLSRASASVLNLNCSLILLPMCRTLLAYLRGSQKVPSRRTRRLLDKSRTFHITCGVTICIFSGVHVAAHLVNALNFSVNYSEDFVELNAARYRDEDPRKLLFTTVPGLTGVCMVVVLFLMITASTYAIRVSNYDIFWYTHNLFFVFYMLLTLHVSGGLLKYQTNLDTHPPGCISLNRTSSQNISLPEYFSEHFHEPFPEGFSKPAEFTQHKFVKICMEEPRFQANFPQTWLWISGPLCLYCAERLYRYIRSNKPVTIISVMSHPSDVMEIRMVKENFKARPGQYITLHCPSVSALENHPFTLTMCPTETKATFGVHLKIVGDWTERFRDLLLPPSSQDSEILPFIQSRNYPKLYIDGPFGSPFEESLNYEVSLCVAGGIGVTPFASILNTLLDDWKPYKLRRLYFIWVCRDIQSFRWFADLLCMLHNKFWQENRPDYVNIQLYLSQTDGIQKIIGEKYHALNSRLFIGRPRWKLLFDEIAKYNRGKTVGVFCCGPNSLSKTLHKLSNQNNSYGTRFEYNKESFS
T1 sequence (P13498 1-195 partner): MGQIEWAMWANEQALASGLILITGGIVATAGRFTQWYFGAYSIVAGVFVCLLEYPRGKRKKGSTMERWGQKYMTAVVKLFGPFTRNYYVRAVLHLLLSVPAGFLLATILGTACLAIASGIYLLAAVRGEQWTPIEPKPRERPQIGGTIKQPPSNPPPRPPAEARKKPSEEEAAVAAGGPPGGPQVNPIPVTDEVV
In words: Amplex Red activity assay (cellular H2O2 formation in hNOX4 T-REx-293 cells). The conditions noted are these: tet-induced 24 h, extracellular H2O2 by Amplex Red, 60 min 25° C., geometric mean if determined several times. It is filed as cell-based. An outline of the steps: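 Tet-induced (1 μg/mL, 24 h) HEK293 T-REx cells stably expressing full-length human NOX4, 20 000 cells/well, exposed to compounds (10 concentrations, 50 μM to 100 nM; 1.25% DMSO) for 60 min at 25°C. Extracellular H2O2 detected by Amplex Red resorufin fluorescence (ex 550/em 600 nm) versus vehicle; IC50 calculated.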

SMILES strings stand for the structures.

The values below come from patent US11136317B2, “NADPH oxidase 4 inhibitors” (ACTELION PHARMACEUTICALS LTD, priority 2015, dated 2021).

Broadly, the IC50 is the midpoint of a concentration-inhibition curve.

As to `O=C(Nc1ccc2c(c1)CCO2)c1ccc2oc(N3CCOCC3)nc2c1` [Example 77, 2-Morpholin-4-yl-benzooxazole-5-carboxylic acid (2,3-dihydro-benzofuran-5-yl)-amide], the IC50 is 548 nM.
Then `CCN(CC)c1nc2cc(C(=O)Nc3ccc4c(c3)CCO4)ccc2o1` [Example 78, 2-Diethylamino-benzooxazole-5-carboxylic acid (2,3-dihydro-benzofuran-5-yl)-amide], with 417 nM; and `O=C(Nc1ccc2c(c1)CCO2)c1ccc2oc(N3CCCC3)nc2c1` [Example 79, 2-Pyrrolidin-1-yl-benzooxazole-5-carboxylic acid (2,3-dihydro-benzofuran-5-yl)-amide], with 585 nM.
For `O=C(Nc1ccc2sc(N3CCCCC3)nc2c1)c1ccc2c(c1)CCO2` [Example 81, 2,3-Dihydro-benzofuran-5-carboxylic acid (2-piperidin-1-yl-benzothiazol-5-yl)-amide], the IC50 is 2450 nM.
With `O=C(Nc1ccc2sc(N3CCOCC3)nc2c1)c1ccc2c(c1)CCO2` [Example 82, 2,3-Dihydro-benzofuran-5-carboxylic acid (2-morpholin-4-yl-benzothiazol-5-yl)-amide], the IC50 was 2350 nM.
Consider `CN1CCN(c2nc3cc(NC(=O)c4ccc5c(c4)CCO5)ccc3s2)CC1` [Example 83, 2,3-Dihydro-benzofuran-5-carboxylic acid [2-(4-methyl-piperazin-1-yl)-benzothiazol-5-yl]-amide], for which the IC50 was determined as 3540 nM.
On to `O=C(Nc1ccc2sc(N3CCCC3)nc2c1)c1ccc2c(c1)CCO2` [Example 84, 2,3-Dihydro-benzofuran-5-carboxylic acid (2-pyrrolidin-1-yl-benzothiazol-5-yl)-amide], for which the IC50 is 1320 nM.
In the case of `CCN(CC)c1nc2cc(NC(=O)c3ccc4c(c3)CCO4)ccc2s1` [Example 85, 2,3-Dihydro-benzofuran-5-carboxylic acid (2-diethylamino-benzothiazol-5-yl)-amide], the IC50 amounted to 1650 nM.
With `O=C(Nc1ccc2sc(N3CC(F)(F)C3)nc2c1)c1ccc2c(c1)CCO2` [Example 87, 2,3-Dihydro-benzofuran-5-carboxylic acid [2-(3,3-difluoro-azetidin-1-yl)-benzothiazol-5-yl]-amide] the figure was 4100 nM.
Then `O=C(Nc1ccc2sc(N3CCC(F)(F)C3)nc2c1)c1ccc2c(c1)CCO2` [Example 88, 2,3-Dihydro-benzofuran-5-carboxylic acid [2-(3,3-difluoro-pyrrolidin-1-yl)-benzothiazol-5-yl]-amide], with 3660 nM; and `O=C(Nc1ccc2sc(N3CCCC(F)(F)C3)nc2c1)c1ccc2c(c1)CCO2` [Example 89, 2,3-Dihydro-benzofuran-5-carboxylic acid [2-(3,3-difluoro-piperidin-1-yl)-benzothiazol-5-yl]-amide], with 1920 nM.
As to `O=C(Nc1ccc2sc(N3CCC34COC4)nc2c1)c1ccc2c(c1)CCO2` [Example 90, 2,3-Dihydro-benzofuran-5-carboxylic acid [2-(6-oxa-1-aza-spiro[3.3]hept-1-yl)-benzothiazol-5-yl]-amide], the concentration for half-maximal inhibition (IC50) turned out to be 361 nM.
Then `O=C(Nc1ccc2sc(N3CC4(COC4)C3)nc2c1)c1ccc2c(c1)CCO2` [Example 91, 2,3-Dihydro-benzofuran-5-carboxylic acid [2-(2-oxa-6-aza-spiro[3.3]hept-6-yl)-benzothiazol-5-yl]-amide], with 4330 nM; and `O=C(Nc1ccc2sc(N3CCS(=O)(=O)CC3)nc2c1)c1ccc2c(c1)CCO2` [Example 92, 2,3-Dihydro-benzofuran-5-carboxylic acid [2-(1,1-dioxo-1l6-thiomorpholin-4-yl)-benzothiazol-5-yl]-amide], with 2460 nM.
Take `CN(C)CCN(C)c1nc2cc(NC(=O)c3ccc4c(c3)CCO4)ccc2s1` [Example 93, 2,3-Dihydro-benzofuran-5-carboxylic acid {2-[(2-dimethylamino-ethyl)-methyl-amino]-benzothiazol-5-yl}-amide]: the IC50 was determined as 10300 nM.
With `COC1CCN(c2nc3cc(NC(=O)c4ccc5c(c4)CCO5)ccc3s2)C1` (stereo not shown) [Example 94, 2,3-Dihydro-benzofuran-5-carboxylic acid [2-(3-methoxy-pyrrolidin-1-yl)-benzothiazol-5-yl]-amide], the IC50 was determined as 3290 nM.
Then `COC1CCN(c2nc3cc(NC(=O)c4ccc5c(c4)CCO5)ccc3s2)CC1` [Example 95, 2,3-Dihydro-benzofuran-5-carboxylic acid [2-(4-methoxy-piperidin-1-yl)-benzothiazol-5-yl]-amide], with 2140 nM.
With `CC1(O)CN(c2nc3cc(NC(=O)c4ccc5c(c4)CCO5)ccc3s2)C1` [Example 96, 2,3-Dihydro-benzofuran-5-carboxylic acid [2-(3-hydroxy-3-methyl-azetidin-1-yl)-benzothiazol-5-yl]-amide] the figure was 2670 nM; with `CN(C)C1CCN(c2nc3cc(NC(=O)c4ccc5c(c4)CCO5)ccc3s2)CC1` [Example 97, 2,3-Dihydro-benzofuran-5-carboxylic acid [2-(4-dimethylamino-piperidin-1-yl)-benzothiazol-5-yl]-amide], 6300 nM.
As to `O=C(Nc1ccc2sc(N3CC[C@H](O)C3)nc2c1)c1ccc2c(c1)CCO2` [Example 98, (S)—N-(2-(3-hydroxypyrrolidin-1-yl)benzo[d]thiazol-5-yl)-2,3-dihydrobenzofuran-5-carboxamide], the IC50 is 2530 nM.
Consider `O=C(Nc1ccc2sc(N3CCC4(CC3)COC4)nc2c1)c1ccc2c(c1)CCO2` [Example 99, 2,3-Dihydro-benzofuran-5-carboxylic acid [2-(2-oxa-7-aza-spiro[3.5]non-7-yl)-benzothiazol-5-yl]-amide], for which the IC50 came to 3080 nM.
With `CN(c1nc2cc(NC(=O)c3ccc4c(c3)CCO4)ccc2s1)C1CCN(C2COC2)CC1` [Example 100, 2,3-Dihydro-benzofuran-5-carboxylic acid {2-[methyl-(1-oxetan-3-yl-piperidin-4-yl)-amino]-benzothiazol-5-yl}-amide] the figure was 3390 nM; with `O=C(Nc1ccc2sc(N3CCCC4(COC4)C3)nc2c1)c1ccc2c(c1)CCO2` [Example 101, 2,3-Dihydro-benzofuran-5-carboxylic acid [2-(2-oxa-6-aza-spiro[3.5]non-6-yl)-benzothiazol-5-yl]-amide], 2370 nM.
With `O=C(Nc1ccc2sc(N3CCN(C4COC4)CC3)nc2c1)c1ccc2c(c1)CCO2` [Example 102, 2,3-Dihydro-benzofuran-5-carboxylic acid [2-(4-oxetan-3-yl-piperazin-1-yl)-benzothiazol-5-yl]-amide], the IC50 stood at 9170 nM.
Then `CN(c1nc2cc(NC(=O)c3ccc4c(c3)CCO4)ccc2s1)C1COC1` [Example 103, 2,3-Dihydro-benzofuran-5-carboxylic acid [2-(methyl-oxetan-3-yl-amino)-benzothiazol-5-yl]-amide], with 3210 nM.
For the compound `O=C(Nc1ccc2sc(N3CC4(CCO4)C3)nc2c1)c1ccc2c(c1)CCO2` [Example 104, 2,3-Dihydro-benzofuran-5-carboxylic acid [2-(1-oxa-6-aza-spiro[3.3]hept-6-yl)-benzothiazol-5-yl]-amide], the IC50 turned out to be 6870 nM.
`CN(C)CC1CCN(c2nc3cc(NC(=O)c4ccc5c(c4)CCO5)ccc3s2)C1` (stereo not shown) [Example 105, 2,3-Dihydro-benzofuran-5-carboxylic acid [2-(3-dimethylaminomethyl-pyrrolidin-1-yl)-benzothiazol-5-yl]-amide]: the IC50 amounted to 14800 nM.
Take `CC(C)OC1CN(c2nc3cc(NC(=O)c4ccc5c(c4)CCO5)ccc3s2)C1` [Example 106, 2,3-Dihydro-benzofuran-5-carboxylic acid [2-(3-isopropoxy-azetidin-1-yl)-benzothiazol-5-yl]-amide]: the IC50 is 9390 nM.
Turning to `CCOCC1CCCN1c1nc2cc(NC(=O)c3ccc4c(c3)CCO4)ccc2s1` (stereo not shown) [Example 107, 2,3-Dihydro-benzofuran-5-carboxylic acid [2-(2-ethoxymethyl-pyrrolidin-1-yl)-benzothiazol-5-yl]-amide], the IC50 was found to be 9510 nM.
Turning to `COC1CCCN(c2nc3cc(NC(=O)c4ccc5c(c4)CCO5)ccc3s2)C1` (stereo not shown) [Example 108, 2,3-Dihydro-benzofuran-5-carboxylic acid [2-(3-methoxy-piperidin-1-yl)-benzothiazol-5-yl]-amide], the IC50 stood at 2540 nM.
Turning to `O=C(Nc1ccc2sc(N3CC(O)C3)nc2c1)c1ccc2c(c1)CCO2` [Example 109, 2,3-Dihydro-benzofuran-5-carboxylic acid [2-(3-hydroxy-azetidin-1-yl)-benzothiazol-5-yl]-amide], the IC50 worked out at 1780 nM.
